Here are results for one compound from patent US20260232644A1, “Compositions Comprising an Inhibitor of Galectin-3” (University of Liverpool, priority 2023, published 2026).

The target of this test is T1, Galectin-8 (Homo sapiens, UniProt O00214).
T1 construct: purchased R&D Systems (Abingdon, UK)
T1 sequence (O00214 1-317): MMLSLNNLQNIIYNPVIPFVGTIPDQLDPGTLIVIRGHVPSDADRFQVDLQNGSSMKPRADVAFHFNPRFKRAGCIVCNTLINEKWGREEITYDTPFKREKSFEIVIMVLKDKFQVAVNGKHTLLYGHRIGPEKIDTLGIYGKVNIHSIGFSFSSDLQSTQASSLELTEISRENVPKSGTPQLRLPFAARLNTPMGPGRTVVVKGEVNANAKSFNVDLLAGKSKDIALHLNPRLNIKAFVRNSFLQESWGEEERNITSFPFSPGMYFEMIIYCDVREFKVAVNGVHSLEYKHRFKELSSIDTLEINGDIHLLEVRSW
In words: Galectin-8 binding to asialofetuin ELISA. Conditions: Gal-8 5 μg/ml, ASF 20 μg/ml. The protocol: Effect of the inhibitors on galectin binding to its ligand asialo fetuin (ASF) was measured by galectin ELISA. Nanty-six well plates were coated overnight with 20 μg/ml ASF in coating buffer (15 mM Na2CO3 17 mM NaHCO3 pH 9.6.). The wells were washed twice with PBS and incubated with blocking buffer (1% BSA in PBS) for 1 hr. The supernatants were removed and replaced with 5 μg/ml recombinant human galectin without or with different concentrations of the compound inhibitors or lactose in blocking buffer for 1 hr at room temperature. The wells were washed and incubated with 1 μg/ml anti-galectin antibody for 2 hr. Following addition of HRP-conjugated secondary antibody for 1 hr, FAST OPD development solution was added for 15-20 minutes. The reaction was terminated by addition of 4M sulphuric acid. The plates were read at 492 nm (reference wavelength 595 nm) by a microplate reader.
In general terms: In an ELISA, binding on a coated surface is turned into a signal by an enzyme label.

Structures can show the parent of a compound that is named as a salt.

For `NC1CCN(c2nc3c(cc2F)c(=O)c(C(=O)O)cn3-c2ccc(F)cc2F)C1` (stereo not shown) [Formula X, Tosufloxacin tosylate], the “Effect on Galectin-8 binding to asialofetuin” value is listed as “does not affect binding”.
